In patent publication US9763939B2, “Compositions and methods for treating mitochondrial diseases” (BIOVISTA, INC., priority 2012, dated 2017):

Assays:
[1] = test system: C57BL/6 mice with MOG-induced EAE; experiment: MOG-induced Experimental Allergic Encephalomyelitis (MOG-EAE) mouse model, spinal cord histology; format: in vivo; settings: spinal cord H&E histology day 35, pirlindole 30 mg/kg, dexamethasone positive control, dose not given
Description: EXAMPLE. Evaluation of anti-inflammatory and direct protection mode of action. Compounds described herein are evaluated in a standard MOG-induced Experimental Allergic Encephalomyelitis (MOG-EAE) mouse model of neurodegeneration to determine whether the compounds protect neurons directly, or via an indirect anti-inflammatory mode of action. EAE is induced in C57BL/6 mice by the single subcutaneous injection of MOG emulsified in Complete Freund's Adjuvant (CFA) on study days 0 and 6, followed by intraperitoneal supplemental immunostimulation with Pertussis Toxin (PT) carried out once at the time of EAE induction and once again 48 hours later. Test animals are observed for 35 days. Histology samples are harvested from the spinal cords of the animals on day 35 and are stained with Hematoxylin & Eosin (H&E). Analysis of the samples comprises two parameters: a) The Severity Score which refers mainly to infiltration by inflammatory cells and b) White Matter Damage (WMD), which refers mainly to axonal degeneration.

[2] = test system: YG8R FRDA mouse fibroblasts; experiment: FAC/BSO oxidative stress insult, cell viability (Presto Blue), YG8R fibroblasts; format: cell-based; settings: FAC and 1 mM BSO 48 h
Description: (§1) EXAMPLE. Primary fibroblast and neuronal stem cell (NSC) cultures from the YG8R FRDA mouse model. The cell cultures are used as a rapid means to test the effectiveness of potential therapies before proceeding to longer-term FRDA mouse model investigations. A parallel assay using YG22R NSCs may be used.
(§2) YG8R fibroblasts and NSCs are treated with increasing concentrations of test compound, and a vehicle-only negative control. Optionally, YG8R fibroblasts and NSCs are treated with a positive control compound, such as 1 μM idebenone. Two hours after the initial treatment, cells are lesioned with […] FAC and 1 mM BSO for 48 hours. Cell viability is then determined using Presto Blue Cell Viability Reagent (Life Technologies) for 24 hours and subsequent colorimetric spectrophotometry. […] Similarly, 1.8 μM tetrindole restored the vehicle-treated FAC/BSO cell viability value of 26% to a value of 53% (p<0.001), relative to the vehicle treated non-insulted cell value as 100%.

[3] = test system: human primary fibroblasts from patients suffering from Friedreich's ataxia; experiment: cells
Description: (§3) EXAMPLE. […] Briefly, primary human fibroblasts from patients suffering from Friedreich's ataxia and LHON are lesioned with 100 μM BSO (LHON fibroblasts) or 250 μM BSO (FRDA fibroblasts) respectively, for 48 hours. Apoptosis, toxicity and viability rate of cells are determined using the ApoTox-Glo-Kit (Promega): the reagent for assessing viability and toxicity is applied 1:5 into treatment medium and incubated for 30 min at 37° C. Next, fluorescence is measured at the following wavelength sets: 400EX/505EM (viability) and 485EX/520EM (toxicity). In case of apoptosis measurement the caspase reagent was added 1:2 and incubated at RT for 30 min, the caspase activity (apoptosis) was measured as luminescence
(§4) EXAMPLE. Evaluation of Tetracyclic Pyrazinoindoles, and Pharmaceutically Acceptable Salts Thereof. One or more tetracyclic pyrazinoindoles are applied 2 and 24 hours before BSO treatment and are present throughout the assay. An optional reference compound, such as idebenone may be included for comparison. BSO treated cells without any treatment (BSO group) as well as cells neither treated with BSO nor with any treatment (Vehicle Control (VC) group) serve as controls. Cells are assessed for apoptosis, toxicity and viability immediately after BSO lesion by means of the ApoTox-Glo-assay Kit (Promega). Three independent experiments in four technical replicates are performed for all groups as depicted in Table 1 (different tetracyclic pyrazinoindoles are labeled as Test Items (T.I.1-T.I.2) and an optional positive control Reference Item 1 (R.I.1)):
(§5) BSO generally reduces a cell's protection against oxidative damage. Cells harvested from FRDA and LHON patients generate higher levels of ROS than normal cells. Apoptosis, toxicity and viability rate of cells are determined using the ApoTox-Glo-Kit (Promega): the reagent for assessing viability and toxicity is applied 1:5 into treatment medium and incubated for 30 min at 37° C. Next, fluorescence is measured at the following wavelength sets: 400EX/505EM (viability) and 485EX/520EM (toxicity). In case of apoptosis measurement the caspase reagent is added 1:2 and incubated at RT for 30 min, the caspase activity (apoptosis) was measured as luminescence
(§6) Descriptive statistical analysis was performed. Data are presented as mean±standard error of mean (SEM) in percent of vehicle control, MPP+ lesion and BSO lesion, respectively. Differences between compound-treated groups and controls (vehicle, BSO) are evaluated by means of One-Way ANOVA.
EXAMPLE. […] One vial is thawed and administered 2 and 24 hours before BSO treatment, at concentrations 0.6 μM, 1.8 μM, 5.5 μM and 16 μM. Apoptosis, toxicity and viability rate of cells are determined using the ApoTox-Glo-Kit (Promega). Human primary fibroblasts from patients suffering from Friedreich's ataxia are used. Three independent experiments in four technical replicates are performed for all groups. […] Statistical significance is indicated by NS=not significant p>0.1, *=p<0.05, **=p<0.01, ***=p<0.001 as determined by One-Way ANOVA. Data are shown as group mean+/−SEM.
EXAMPLE. Tetrindole is diluted in DMSO. One vial is thawed and administered 2 and 24 hours before BSO treatment, at concentrations 0.2 μM, 0.6 μM, 1.8 μM and 5.5 μM. Apoptosis, toxicity and viability rate of cells are determined using the ApoTox-Glo-Kit (Promega). Human primary fibroblasts from patients suffering from Friedreich's ataxia are used. Three independent experiments in four technical replicates are performed for all groups. […] Statistical significance is indicated by NS=not significant p>0.1, *=p<0.05, **=p<0.01, ***=p<0.001 as determined by One-Way ANOVA. Data are shown as group mean+/−SEM.

[4] = test system: YG8R FRDA mouse neuronal stem cells (NSCs); experiment: FAC/BSO oxidative stress insult, cell viability (Presto Blue), YG8R NSCs; format: cell-based
Description: as §1, §2
Similarly, 1.8 μM tetrindole restored the vehicle-treated FAC/BSO cell viability value of 19% to a value of 40% (p<0.001), relative to the vehicle treated non-insulted cell value as 100%.

[5] = test system: human primary fibroblasts from patients suffering from LHON; experiment: cells
Description: as §3, §4, §5, §6
EXAMPLE. […] One vial is thawed and administered 2 and 24 hours before BSO treatment, at concentrations 0.6 μM, 1.8 μM, 5.5 μM and 16 μM. Apoptosis, toxicity and viability rate of cells are determined using the ApoTox-Glo-Kit (Promega). Human primary fibroblasts from patients suffering from LHON are used. Three independent experiments in four technical replicates are performed for all groups. […] Statistical significance is indicated by NS=not significant p>0.1, *=p<0.05, **=p<0.01, ***=p<0.001 as determined by One-Way ANOVA. Data are shown as group mean+/−SEM.
EXAMPLE. Tetrindole is diluted in DMSO. One vial is thawed and administered 2 and 24 hours before BSO treatment, at concentrations 0.2 μM, 0.6 μM, 1.8 μM and 5.5 μM. Apoptosis, toxicity and viability rate of cells are determined using the ApoTox-Glo-Kit (Promega). Human primary fibroblasts from patients suffering from LHON are used. Three independent experiments in four technical replicates are performed for all groups. […] Statistical significance is indicated by NS=not significant p>0.1, *=p<0.05, **=p<0.01, ***=p<0.001 as determined by One-Way ANOVA. Data are shown as group mean+/−SEM.

[6] = too lipophillic; cannot reach the mitochondria (Edeas M. Pharm Res. 2011); cited from earlier work
[7] = Homo sapiens, Fibroblast, 48 h, read-out: protective effect in relative cell viability

C[C@@H]1C[C@H]2[C@@H]3CCC4=CC(=O)C=C[C@]4(C)[C@@]3(F)[C@@H](O)C[C@]2(C)[C@@]1(O)C(=O)CO [dexamethasone]
Severity Score (infiltration by inflammatory cells) ([1]; vehicle 2.85±0.66): 1.45±1.09
White Matter Damage (WMD) percentage (axonal degeneration) ([1]; vehicle 74.2±26.1): 24.4±33.3 percentage

c1cc2c(cc1C1CCCCC1)c1c3n2CCNC3CCC1 (centres unmarked) [tetrindole, 2,3,3a,4,5,6-Hexahydro-8-cyclohexyl-1H-pyrazino[3,2,1-j,k]carbazole]
protection against the oxidative stress insult [2]: significantly protect
viability at 1.8 µM ([2]; Mus musculus, Fibroblast, 1.8 μM, vehicle-treated FAC/BSO value 26%, relative to vehicle treated non-insulted cells as 100%, p<0.001): 53%
viability at 1.8 µM [3, 7]: 156%
statistically significant improvement in apoptosis compared to the BSO group ([3]; all tested doses): not observed at any dose
statistically significant overall cytotoxicity over BSO control ([3]; human): not observed at any dose, except the highest dose of 5.5
protection against the oxidative stress insult [4]: significantly protect
viability at 1.8 µM ([4]; Mus musculus, 1.8 μM, vehicle-treated FAC/BSO value 19%, relative to vehicle treated non-insulted cells as 100%, p<0.001): 40%
statistically significant overall cytotoxicity over BSO control [5]: not observed at any dose
viability at 1.8 µM [5, 7]: 122%
statistically significant improvement in apoptosis compared to the BSO group ([5]; all tested doses): not observed at any dose
statistically significant improvement in viability compared to the BSO group ([5]; all tested doses): not observed at any dose

vitamin E
permeation of cell membranes [6]: permeates cell membranes poorly
